# Measurements as given in patent US7951408B2, “Methods of feeding animals” (ADM Alliance Nutrition Inc., priority 2001, dated 2011).
# Several values for one entry are separate records, joined by “and”; a condition that tells them apart may be missing. Identical values can stand only once. Like-named read-outs stand apart in the source and are kept apart here. Marks after values point to notes of the source that are not given here.
# Tests used:
# [1] = tested on: rumen protein digestion; experiment: In vitro fermentation of protein meals with metal ions: RUP after 16 h; conditions: for Mean RUP: 150 mg/L metal ions, 16 h of fermentation
# [2] = tested on: Holstein cows; conditions: complete feed 1020 ppm of zinc, six weeks
# Excerpt: The source of RUP was a combination of heated soybean meal, corn gluten meal, and distiller dried grains.
# [3] = tested on: rumen protein digestion; experiment: In vitro digestion in artificial rumen system (Ankom Daisy): rumen protein digestion
# Protocol: Metals were incorporated at 150 or 300 mg/L. […] Previous efforts focused on the digestion of high protein feeds such as oilseed meals.
# [4] = tested on: rumen starch digestion; experiment: In vitro starch digestion and pH in artificial rumen system (Ankom Daisy)
# Protocol: In vitro digestions of a complete dairy pellet, and a dairy total mixed ration TMR) were performed using an artificial rumen system (Ankom Daisy system) to evaluate the effects of metal ions on rumen starch digestion.
# [5] = tested on: lactating dairy cows; conditions: for Dry matter intake / Intestinal Amino Acid flows, Lysine / Intestinal Amino Acid flows, Methionine / Intestinal Amino Acid flows, Total Essential Amino Acids / Ruminal digestion, Neutral Detergent Fiber / Ruminal digestion, Organic Matter / Ruminal digestion, Starch: additional 250 ppm zinc
# Protocol: The concentration of RUP in high and low RUP diets were manipulated by changing the proportions of low RUP feeds (soybean meal, canola) and high RUP feeds (heated soybean meal, corn gluten meal).
# Using the data presented in Table 8, the amount of metal ions fed to the cows can also be expressed in grams of metal ions per kilogram of the cow's body weight per day. For instance, Table 8A presents the data of Table 8 in a different format. The average body weight is determined by the fact that an average mature dairy cow weighs about 640 kg. The grams of metal ions fed to the cow per kg of the cow's body weight per day is determined by: multiplying the DMI (kg/day) times the metal ion concentration (grams of metal ions per kg of dry feed), resulting in the amount of metal ions in grams fed to the cow per day; the amount of metal ions in grams fed to the cow per day is divided by the average body weight of the cow, thus resulting in the grams of metal ions fed to the cow per kg of the cow's body weight per day.
# [6] = tested on: crossbred wether lambs; experiment: Performance of lambs receiving zinc or zinc, manganese, iron combinations; assay type: in vivo; conditions: 16% CP, Low RUP diet plus metal sulfates (about 500 ppm total metal)
# Protocol: Individually fed crossbred wether lambs were fed diets containing 14% CP (as a negative control) or 16% CP with low or high RUP content to examine the feeding of divalent metals singly or in combination. Bypass protein content was increased by feeding higher amounts of heat-treated soybean meal. In the 16%, Low RUP diet, the following metal additions were tested: 500 ppm Zn; 250 ppm Zn:250 ppm Mn; and 170 ppm Zn: 170 ppm Mn: 170 ppm Fe. All metals were added in the sulfate form, and iron was in the form of ferrous sulfate. Feeding the 16% CP: High RUP diet or adding metals to the 16% CP: Low RUP tended to decrease gain and feed efficiency with only small effects on feed intake relative to that obtained with the 16%, low RUP diet (Table 6).
# For instance, Table 6A presents the data of Table 6 in a different format. The average body weight is determined by dividing the sum of the initial weight and the 42 day weight of the lamb by 2.
compound,measurement,setting,value
[Cl][Fe]([Cl])[Cl] [Ferric Iron],Mean RUP,[1]; Canola,51.6^ab
same,Mean RUP,[1]; Cottonseed,58.4^b
same,Mean RUP,[1]; Heated Canola,81.1^a
same,Mean RUP,[1]; Heated SBM,81.7^ab
same,Mean RUP,[1]; SBM,29.1^a
"O=S(=O)([O-])[O-].[Zn+2] [Zinc, zinc sulfate]",Milk,[2],33.2 kg/day
same,Milk Fat,[2],3.25%
same,Milk Protein,[2],3.20%
same,Average rumen undegraded protein for all samples,[3],45 % of protein and 48 % of protein
same,Mean RUP,[1]; Canola,57.3^b
same,Mean RUP,[1]; Cottonseed,64.4^c
same,Mean RUP,[1]; Heated Canola,85.2^b
same,Mean RUP,[1]; Heated SBM,85.2^b
same,Mean RUP,[1]; SBM,56.4^c
same,Ammonia,[4],30.8 mg/dL and 29.7 mg/dL
same,"Ammonia, Main Effects",[4],-1.1 mg/dL
same,"Digestion Rates, Rumen Undegraded Starch (16 hours), Main Effects",[4],.038** % per hour
same,"Digestion Rates, pH Decline, Main Effects",[4],−.027 % per hour
same,Rumen Undegraded Starch (16 hours),[4],13.2% and 12.0%
same,"Rumen Undegraded Starch (16 hours), Main Effects",[4],4.0%
same,calculated kinetic rate for starch digestion,[4],decreased
same,"pH at 16 hours, Main Effects",[4],.05*
same,"pH at 48 hours, Main Effects",[4],.05
same,rumen undegraded starch measured at 16 h,[4],increased
same,Dry matter intake,[5]; High RUP diet,22.2 kg/day
same,"Intestinal Amino Acid flows, Lysine",[5]; High RUP diet,200.0 g/day
same,"Intestinal Amino Acid flows, Methionine",[5]; High RUP diet,58.2 g/day
same,"Intestinal Amino Acid flows, Total Essential Amino Acids",[5]; High RUP diet,1601 g/day
same,"Ruminal digestion, Neutral Detergent Fiber",[5]; High RUP diet,24.8 % of intake
same,"Ruminal digestion, Organic Matter",[5]; High RUP diet,45.5 % of intake
same,"Ruminal digestion, Starch",[5]; High RUP diet,52.8 % of intake
same,Dry matter intake,[5]; Low RUP diet,21.8 kg/day
same,"Intestinal Amino Acid flows, Lysine",[5]; Low RUP diet,183.3 g/day
same,"Intestinal Amino Acid flows, Methionine",[5]; Low RUP diet,49.0 g/day
same,"Intestinal Amino Acid flows, Total Essential Amino Acids",[5]; Low RUP diet,1331 g/day
same,"Ruminal digestion, Neutral Detergent Fiber",[5]; Low RUP diet,22.0 % of intake
same,"Ruminal digestion, Organic Matter",[5]; Low RUP diet,47.3 % of intake
same,"Ruminal digestion, Starch",[5]; Low RUP diet,53.6 % of intake
same,digestion of starch in the rumen,"[5]; both the low and high RUP diets, in words",reduced
same,ADG (average daily gain),[6],"451^a,b g/day"
same,G/F × 100 (ratio of weight gain to feed intake),[6],27.3^b
same,Total Gain,[6],18.81^a kg
same,42 day weight,[6]; listed as Zn,43.8^a kg and 43.8 kg
same,DMI (dry matter intake),[6]; listed as Zn,1.66^a kg/day and 1.66 kg/day
ferrous sulfate [Ferrous Iron],"decreasing rumen protein digestion, effectiveness","[1]; 150 mg/L, in words",substantially more effective than the ferric ion
same,Mean RUP,[1]; Canola,57.7^b
same,Mean RUP,[1]; Cottonseed,62.1^bc
same,Mean RUP,[1]; Heated Canola,83.5^b
same,Mean RUP,[1]; Heated SBM,83.9^b
same,Mean RUP,[1]; SBM,42.9^b
manganous sulfate [Manganese],rumen undegraded protein,"[3]; Alfalfa Haylage, 150 mg/L",26.1
same,rumen undegraded protein,"[3]; Alfalfa Haylage, 300 mg/L",24.8
same,rumen undegraded protein,"[3]; Dairy Concentrate Feeds, 150 mg/L",50.9
same,rumen undegraded protein,"[3]; Dairy Concentrate Feeds, 300 mg/L",52.3
same,Average rumen undegraded protein for all samples,[3]; metal inclusion 150 mg/L,43.2 % of protein
same,Average rumen undegraded protein for all samples,[3]; metal inclusion 300 mg/L,42.5 % of protein
same,Ammonia,[4]; 150 mg/L metal,32.1 mg/dL
same,"Digestion Rates, Rumen Undegraded Starch (16 hours)",[4]; 150 mg/L metal,−.137 % per hour
same,"Digestion Rates, pH Decline",[4]; 150 mg/L metal,.135 % per hour
same,Rumen Undegraded Starch (16 hours),[4]; 150 mg/L metal,5.1%
same,pH at 16 hours,[4]; 150 mg/L metal,−.28
same,pH at 48 hours,[4]; 150 mg/L metal,−.30
same,Ammonia,[4]; 300 mg/L metal,34.2 mg/dL
same,"Digestion Rates, Rumen Undegraded Starch (16 hours)",[4]; 300 mg/L metal,−.132 % per hour
same,"Digestion Rates, pH Decline",[4]; 300 mg/L metal,.247 % per hour
same,Rumen Undegraded Starch (16 hours),[4]; 300 mg/L metal,8.0%
same,pH at 16 hours,[4]; 300 mg/L metal,−.34
same,pH at 48 hours,[4]; 300 mg/L metal,−.27
same,"Ammonia, Main Effects",[4]; main effect of metal,1.8 mg/dL
same,"Digestion Rates, Rumen Undegraded Starch (16 hours), Main Effects",[4]; main effect of metal,0.0 % per hour
same,"Digestion Rates, pH Decline, Main Effects",[4]; main effect of metal,−.043 % per hour
same,"Rumen Undegraded Starch (16 hours), Main Effects",[4]; main effect of metal,−2.0%
same,"pH at 16 hours, Main Effects",[4]; main effect of metal,.05*
same,"pH at 48 hours, Main Effects",[4]; main effect of metal,.03
